From US5912235A, “10, 13, 15-trioxatricyclo [9.2.1.1.^9.6 ]-pentadecan one derivatives, method for their production and pharmaceutical compositions containing them” (Solvay Pharmaceuticals GmbH, priority 1996, dated 1999)

Experiments:
[1] = target: T1, motilin receptors (Oryctolagus cuniculus, UniProt G1T803); assay: Determination of the binding capacity of the test substances to motilin receptors (displacement of 125-iodine-labelled motilin, crude membrane preparation from rabbit antrum); settings: tissue homogenate fraction from rabbit antrum; iodinated motilin 50 pM; 30° C., 60 min; read-out: pIC50 value (50% inhibition of the specific binding of the iodinated motilin to the motilin receptors) (converted)
T1 construct: fraction of a tissue homogenate from rabbit antrum; from tissue; host or cells: rabbit antrum, mucosa removed, crude membrane preparation
Description: 1. Determination of the binding capacity of the test substances to motilin receptors.
The affinity of the compounds of Formula I for motilin receptors is measured in vitro on a fraction of a tissue homogenate from rabbit antrum. The displacement of radioactively labelled iodinated motilin from motilin receptor binding by the test substances is determined.
The receptor binding studies are carried out by a modification of the method of Borman et al. (Regulatory Peptides, 15:143-153 (1986). To prepare the ^125 iodine-labelled motilin, motilin is iodinated enzymatically using lactoperoxidase in known manner, for example in analogy to the method described by Bloom et al., Scand. J. Gastroenterol.,11:47-52 (1976). […]
For the binding test, 200 μl of the crude membrane fraction (0.5-1 mg of protein) in 400 μl of a buffer solution A (50 mM tris-HCl buffer, 1.5% BSA, 10 mM MgCl2, pH 8.0) are incubated with 100 μl of iodinated motilin diluted in buffer solution B (10 mM tris-HCl buffer, 1% BSA, pH 8) (final concentration 50 pM) at 30° C. for 60 min. […] The residue obtained as pellet after the centrifugation is washed with buffer solution B and counted in a gamma counter. […] From this the corresponding pIC50 value is calculated.

[2] = test system: stomach tone; assay: In vivo determination of the effect of the substances on the stomach tone (barostat, stomach volume at constant pressure after lipid intake); settings: beagles; maximum tolerable dose; stomach volume measured at constant pressure with barostat
Description: 2. In vivo determination of the effect of the substances on the stomach tone.
The stomach tone plays an important role in gastric emptying. An increased stomach tone contributes to an increased rate of gastric emptying.
The influence of substances on the stomach tone is determined on beagles with the aid of a barostat which is connected to a plastic pouch in the stomach of the dog and permits measurement of volume or pressure in the stomach of the dog. With the barostat, the stomach volume is determined at a constant pressure in the stomach or the stomach pressure is determined at a constant volume in the stomach. When the stomach tone increases, a reduced stomach volume is detected at a given pressure, and an increased pressure at a given volume. In the test model used to investigate the increase in stomach tone effected by the substances, the change in stomach volume caused by the substances is measured at constant pressure. The stomach of the test animals is relaxed by intake of lipids, i.e. the stomach tone decreases, which causes the stomach volume to increase correspondingly. The reduction in % of the stomach volume which has been increased by administration of lipids which occurs after intake of the substance due to a re-increase in stomach tone is measured as a measurement of the stomach tone-increasing action of the substances.

T1 sequence (G1T803 1-400): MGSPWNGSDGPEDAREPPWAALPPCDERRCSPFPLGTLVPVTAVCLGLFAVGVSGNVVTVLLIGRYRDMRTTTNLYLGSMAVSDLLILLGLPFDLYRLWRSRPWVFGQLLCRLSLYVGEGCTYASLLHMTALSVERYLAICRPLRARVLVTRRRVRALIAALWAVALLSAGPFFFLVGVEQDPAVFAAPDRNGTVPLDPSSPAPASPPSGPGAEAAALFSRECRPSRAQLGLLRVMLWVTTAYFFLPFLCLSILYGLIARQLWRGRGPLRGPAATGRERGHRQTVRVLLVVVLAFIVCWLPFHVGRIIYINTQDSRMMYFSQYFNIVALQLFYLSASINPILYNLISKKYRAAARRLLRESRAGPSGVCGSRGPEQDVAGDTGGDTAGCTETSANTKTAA

SMILES: CC[C@@H](O)[C@@]1(C)O[C@]23O[C@](C)(CC2C)[C@H](O[C@@H]2O[C@H](C)C[C@H](N(C)C(C)C)[C@H]2O)[C@@H](C)[C@H](O[C@H]2C[C@@](C)(OC)[C@@H](O)[C@H](C)O2)[C@@H](C)C(=O)O[C@@H]1[C@H]3C (stereo partly drawn) [Example 1, [(1'R),2R,3S,4S,5R,6R,9R,11R,12R,14R]-11-(1'-hydroxypropyl)-3-[(2,6-dideoxy-3-C-methyl-3-0-methyl-α-L-ribohexopyranosyl)-oxy]-5-[(3,4,6-trideoxy-3-(N-methyl-N-isopropylamino)-β-D-xylo-hexopyranosyl)-oxy]-2,4,6,8,11,14-hexamethyl-10,13,15-trioxatricyclo[9.2.1.1^9.6]-pentadecan-1-one]
- IC50 [1]: 14.1 nM
- reduction in the stomach volume increased after lipid administration [2]: 69%
